The source of these data is patent US20210284621A1 (priority 2018, published 2021).

Data set [1] can be described thus: Brain concentration and brain/plasma ratio after PO dose in mice. The format is in vivo. The conditions noted are these: mouse, 10 mg/kg PO, male C57BL/6 mice; for Kp at 4 h / Kp at 10 h: brain/plasma; for concentration at 4 h / concentration at 10 h / concentration at 24 h: brain. How it is done: Male C57BL/6 mice were administered an oral (P0) dose of 10 mg/kg of the indicated compound. The brain/plasma ratios of the indicated compounds were determined by standard methods, the results of which are provided in Table 11.

The subject of a further data set is LPS-induced PBMCs. In words: Inflammatory cytokine release from LPS-induced PBMCs (Luminex). The data set is classed as cell-based, human. The conditions noted are these: fold change from LPS-treated PBMCs, compounds 10 μM (DEX 1 μg/ml) 2 h, then LPS 0.1 μg/ml 24 h, negative = reduced. In short, it runs like this: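 Human PBMCs from healthy donors pretreated 2 hours with compound at 10 μM (triplicate), then stimulated with 0.1 μg/ml LPS for 24 hours. Supernatant cytokines measured by magnetic Luminex; values given as fold change versus LPS-treated PBMCs, negative meaning reduction; cytotoxicity also assessed.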

The mark [2] stands for this setting: OOR = out of standard curve range.

Structures are written as SMILES.

Consider `CCCCCCC(C)(C)c1cc(O)c2c(c1)OC(C)(C)[C@@H]1CC=C(C(=O)OC(C)C)C[C@@H]21` [Compound 29, Isopropyl (6aR,10aR)-1-hydroxy-6,6-dimethyl-3-(2-methyloctan-2-yl)-6a,7,10,10a-tetrahydro-6H-benzo[c]chromene-9-carboxylate], for which, in data set [1], the Kp at 4 h was determined as 0.00637, the concentration ratio (Kp) at 10 h was determined as 0.106, the concentration at 4 h came to 1.72 ng/g and the concentration at 10 h turned out to be 7.93 ng/g. Besides, in data set [1], the concentration at 24 h turned out to be 0 ng/g.

Take `CCCCCCC(C)(C)c1cc(O)c2c(c1)OC(C)(C)[C@@H]1CC=C(C(=O)NC(C)(C)CCO)C[C@@H]21` [Compound 15, (6aR,10aR)-1-Hydroxy-N-(4-hydroxy-2-methylbutan-2-yl)-6,6-dimethyl-3-(2-methyloctan-2-yl)-6a,7,10,10a-tetrahydro-6H-benzo[c]chromene-9-carboxamide]: in the data set on LPS-induced PBMCs, the IL17A is given as −3.1 fold change, the IL-1β is recorded as −5.9 fold change, the IL-4 is listed as −2.7 fold change and the IL-6 was −107.7 fold change. For the same molecule, in the data set with LPS-induced PBMCs, the IL-8 was −2.4 fold change, the IL-10 is −299.9 fold change, the MCP-1 is −213.2 fold change and the TNFα is −75.9 fold change. Besides, in the data set on LPS-induced PBMCs (setting [2]), the “IL-12 (p70)” value is reported as “OOR” and the L-31 result is listed as “OOR”. In data set [1], the concentration ratio (Kp) at 4 h came out at 0.139, the Kp at 10 h stood at 0.331, the concentration at 4 h was 107 ng/g and the concentration at 10 h is 50.4 ng/g. Moreover, in data set [1], the concentration at 24 h came out at 0 ng/g.
